Values of other authors in patent publication US20070128276A1 (PANACEA BIOTEC LTD., priority 1999, published 2007).

How the values were obtained:
[1] = system: prostaglandin synthesis; settings: in vitro
[2] = system: yeast-induced fever; settings: rats with yeast-induced fever
[3] = animal studies
[4] = system: renal prostaglandin synthesis; settings: rats
[5] = system: plasma proteins

effect on renal prostaglandin synthesis [4]: little effect
oral drug absorption: nearly complete
bound to plasma proteins [5]: 99%
Compound: CS(=O)(=O)Nc1ccc([N+](=O)[O-])cc1Oc1ccccc1 [Nimesulide]
inhibition of prostaglandin synthesis [1]: relatively weak inhibitor
antipyretic potency versus reference drugs [2]: superior antipyretic potency to indomethacin, ibuprofen, aspirin and paracetamol (acetaminophen)
ulcerogenicity versus reference NSAIDs [3]: less ulcerogenic than aspirin, indomethacin, naproxen, piroxicam and ibuprofen
effect of concomitant food on absorption (oral, concomitant administration of food): may decrease the rate, but not the extent of absorption
